These results are taken from patent publication EP4702979A1, “USE OF COMPOUND IN PREVENTION OR TREATMENT OF RADIATION-INDUCED BRAIN INJURY” (Guangzhou Cellprotek Pharmaceutical Co., Ltd, priority 2023, dated 2024).

Read-outs that look alike come from different tables or passages of the source.

The subject of data set [1] is gamma knife irradiation induced focal radiation-induced brain injury. The conditions noted are these: MRI 8 weeks after 50 Gy gamma ray radiation, Mean±SEM, n=5, RBI+Saline model 15.28 ± 0.98, P<0.05 vs model. The source says: (§1) Table 1. Animal grouping and treatment methods
(§2) The model constructing method for focal radiation-induced brain injury caused by gamma ray radiation was modified based on reported literature. After anesthesia of mouse by intraperitoneal injection of 0.1% pentobarbital sodium solution, the body was fixed on a customized platform, and the mouse skull was scanned by X-ray computed tomography scanner for imaging processing (radiation energy of 80kV, imaging range of 250mm, layer thickness and interlayer spacing of 0.625mm, pixel size of 0.49*0.49mm). The animal irradiation position and gamma knife irradiation depth were determined based on the scanning imaging results. The mouse and customized platform were placed in a stereotactic gamma ray irradiation system for irradiation, with the irradiation site in the left thalamus of the mouse. The coordinates of the irradiation center positioning point were: 2mm behind the anterior fontanelle (AP), 2mm left of the midline (L), and 2mm below the skull dura mater (dorsal ventral DV).

Another data set concerns MAG. As to conditions: 60mg/kg/d YC-6 for 8 weeks; thalamus of the lesion, 8 weeks after gamma knife radiation; Mean±SEM, n=5; normal 1.04±0.047, model 0.31±0.018; P<0.0001 vs model.
Description: as §1, §2

Data set [2] deals with CC1 positive oligodendrocytes. As to conditions: 60mg/kg/d YC-6 for 8 weeks; thalamus of the lesion, 8 weeks after gamma knife radiation; Mean±SEM, n=5; normal 1608.00±47.92, model 200.60±21.47; P<0.0001 vs model.
Description: as §1, §2

In a further data set the test system is GFAP positive astrocytes. As to conditions: 60mg/kg/d YC-6 for 8 weeks; thalamus of the lesion, 8 weeks after gamma knife radiation; Mean±SEM, n=5; normal 57.80 ± 2.69, model 558.20 ± 10.07; P<0.0001 vs model.
Description: as §1, §2

The nature of data set [3]: Animal weighing in radiation-induced brain injury model. Type of data set: in vivo, C57BL/6 mice. The conditions noted are these: full 8-week YC-6 administration, 60mg/kg/d; weighed once a week. On the procedure:
as §1
Weighing was performed once a week before and after the gamma ray radiation model construction for 8 weeks.

`C[C@@]12CCCC1C1C[C@@H](O)[C@@]3(O)C[C@@H](O)CC[C@]3(C)C1CC2` (stereo partly drawn) [YC-6, 5α-androst-3β,5,6β-triol]: the Volume of lesion in data set [1] (60mg/kg/d YC-6 for 2 weeks, then stopped for 6 weeks) is listed as 12.28 ± 0.63^# mm^3; in data set [1] (60mg/kg/d YC-6 for 8 weeks), 10.27 ± 1.50^# mm^3. For the same compound, the “MAG fluorescence signal intensity” value with MAG is recorded as 0.44±0.018. Also, the “Number of mature oligodendrocytes” value in data set [2] stood at 506.40±30.48 Oligodendrocytes/mm^2. The compound further registered a Number of astrocytes in the data set on GFAP positive astrocytes of 357.00 ± 10.61 Astrocytes/mm^2. The body weight result in data set [3] was “without affecting body weight”.
